Results as given in US20240175062A1, “LIPOXYGENASE-BASED RECOMBINANT MICROORGANISMS, AND METHOD FORPREPARING HYDROXY FATTY ACIDS AND SECONDARY FATTY ALCOHOLS USING SAME” (EWHA UNIVERSITY - INDUSTRY COLLABORATION FOUNDATION, priority 2021, published 2024).
Like-named read-outs stand apart in the source and are kept apart here.

Assays:
[1] = biological target: Enhygromyxa salina-derived lipoxygenase (EsLOX) (Enhygromyxa salina, UniProt A0A0C2CV93); assay: Enzymatic activity of purified EsLOX for long-chain unsaturated fatty acids (UV-vis spectrophotometer, 234 nm); type: biochemical; details: substrate of purified EsLOX, 50 mM EPPS (pH 8.5) buffer
Description: The culture medium was centrifuged at 13,000×g at 4° C. for 30 minutes and washed twice with phosphate-buffered saline, and added with 50 mM monosodium phosphate (NaH2PO4), 300 mM sodium chloride, 10 mM imidazole, 0.1 mM protease inhibitor (phenylmethylsulfonyl fluoride), and 400 U lysozyme, and then the cell solution was lysed with a sonicator. The cell lysate was centrifuged at 13,000×g at 4° C. for 10 minutes, and then the pellet was removed to separate only a cell supernatant. The cell supernatant was flowed onto a resin packed with an Ni-NTA agarose resin (Qiagen). The protein bound to the resin was washed with a wash buffer (50 mM NaH2PO4, 300 mM NaCl, 20/30 mM imidazole), eluted with an elution buffer (50 mM NaH2PO4, 300 mM NaCl, 250 mM imidazole) to purify Enhygromyxa lipoxygenase. Thereafter, a sample containing the purified Enhygromyxa lipoxygenase was prepared by obtaining a concentrated protein solution using 30 kDa Amicon.
Then, the enzymatic activity of the enzyme sample was measured using a UV-vis spectrophotometer (234 nm). More specifically, as the linoleic acid dioxygenation reaction progressed, the rate of increase in absorbance of a product, conjugated diene, was measured using the spectrophotometer, and the reaction time was measured for each of 10 seconds up to 180 seconds.

[2] = substrate: CCCCC/C=C\C/C=C\C/C=C\C/C=C\CCCC(=O)O; assay: cells, lysate or membranes named; details: other: substrate of purified EsLOX, 234 nm, 50 mM EPPS (pH 8.5) buffer

CCCCC/C=C\C/C=C\CCCCCCCC(=O)O [Linoleic acid, linoleic acid]
Km ([1]; read-out: KM): 90 µM

CC/C=C\C/C=C\C/C=C\CCCCCCCC(=O)O [α-Linolenic acid, α-linolenic acid]
Km ([1]; read-out: KM): 120 µM

CCCCC/C=C\C/C=C\C/C=C\CCCCC(=O)O [γ-Linolenic acid, γ-linolenic acid]
Km [1]: 130 µM

B1: Enhygromyxa salina-derived lipoxygenase (EsLOX) (Enhygromyxa salina) (protein)
chain: MSNIPTLPQNDPRPEQRAQQLDKARETYKYADLLPPLAFCEGVPKPDTPSAAWLVTVGKVAAAVALNAVANRRAWKRGDHDEEDASFDVGGTSEEDQNEAGHNSFLARLENFDEEAVSFAPGDEPSVLDEVNERVAAILGAKPNRHVPPAQADDDDNGDDGDGDESFGVLDGNVSKDGPNGRPQSMDDYANLFRRITLPPIASTWKNDSAFAAYRVAGPNASMIQRITELPDNFAVTDAHYKQAMGEGDSLDAAKAEGRLFLADWKLIGETLVNNTYKGAQKTVYAPLALFAVPPGGGSLAPVAIQPGQTPSPTNKIYATQDGNDWLAAKSAVQVAEGNYHELVSHLGLTHLLLEPIVMATYRQLAQHHPIYMLLIPHFEGTLSINNSAATNLIAPGGAVDLIFAGTIESEHQLALAALKRHDFMRSGLPDTIEQRGVGDTSVLTDYPYRDDGLKIWANIERWVTAYVNNYYISEANVTQDTELQAWAAVLSKPFAEGGVSGFGPIDTRAALIFACTKVIFTASAEHSAVNFPQKDLMSYAPAITGAGWTAAPPSQGPLKDFQPPLELAELQAEFLYLLGGVHHTKLGFYNSNSFPYRAWFKDPKITAELLPAFQRDLAASEELIVAANATRTFKYTYMIPSTIPMSINI
Km [2]: 80 µM | kcat/Km [2]: 290000 M⁻¹ s⁻¹
